Source: paper PMC12895000, “Structural and computational supported development of 2,5-disubstituted-1,3,4-oxadiazole analogues as active LOX, urease, and α-glucosidase inhibitors” (Scientific Reports, 2026)

Target: α-glucosidase (Saccharomyces cerevisiae, UniProt P53341)
Format: biochemical
Description: Inspection of α-glucosidase inhibition was made by using protocol mentioned in literature. 10 µl (0.057 units) of purified enzyme, 10 µl (0.5 mM) of the test compound and 70 µl (50 mM) of sodium phosphate buffer (pH = 6.8) were collected in a 96-well plate. Pre-incubation for 10 min at 37 °C was performed. Pre-reading was done at 400 nm. 10 µl (0.5 mM) of p-nitrophenyl glucopyranoside were added as a substrate. […] The collection of all data was made thrice. The formula given above allowed to calculate % of inhibition.

Chain of α-glucosidase (P53341 whole entry): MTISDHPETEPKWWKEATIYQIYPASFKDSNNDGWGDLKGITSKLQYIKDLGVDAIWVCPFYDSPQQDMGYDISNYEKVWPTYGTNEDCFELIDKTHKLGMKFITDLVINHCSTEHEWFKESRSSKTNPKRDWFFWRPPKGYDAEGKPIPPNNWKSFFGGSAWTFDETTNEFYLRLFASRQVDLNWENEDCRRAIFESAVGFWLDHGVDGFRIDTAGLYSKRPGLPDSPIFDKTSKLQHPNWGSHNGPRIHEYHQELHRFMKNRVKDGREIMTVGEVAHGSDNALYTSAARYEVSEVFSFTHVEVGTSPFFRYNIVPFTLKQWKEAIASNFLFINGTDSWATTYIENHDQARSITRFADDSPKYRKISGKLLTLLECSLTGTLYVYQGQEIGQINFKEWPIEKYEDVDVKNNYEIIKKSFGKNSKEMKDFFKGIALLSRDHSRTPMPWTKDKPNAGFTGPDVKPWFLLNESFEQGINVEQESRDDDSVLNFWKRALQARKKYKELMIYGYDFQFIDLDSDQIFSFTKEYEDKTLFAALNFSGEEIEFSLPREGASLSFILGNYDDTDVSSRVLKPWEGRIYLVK

C[C@H]1O[C@H](O[C@H]2[C@H](O)[C@@H](O)[C@@H](O[C@H]3[C@H](O)[C@@H](O)C(O)O[C@@H]3CO)O[C@@H]2CO)[C@H](O)[C@@H](O)[C@@H]1N[C@H]1C=C(CO)[C@@H](O)[C@H](O)[C@H]1O (stereo partly shown) [Acarbose]
α-Glucosidase Inhibition (%) at 0.5 Mm: 65.73 ± 1.93%
